Assay results: PubChem BioAssay AID1918993 (Molecular Pharmacology Branch, DTP, NCI, 2023)
pIC50: −log10 of the molar value. Values belong to the compound of their own block, whether it stands above or below them.

System: 233499-124-R-J3-PDC complex spheroid growth
Assay: Anticancer human tumor 233499-124-R-J3-PDC patient-derived colon adenocarcinoma cell line growth inhibition [AhR]
Conditions: for pIC50: curve of first compound; for viability, T/C: stronger effect = lower value
How it was run: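 Complex tumor spheroids co-cultured with HUVEC and human MSC stroma; AhR antagonists tested in combination with standard-of-care and investigational agents. Top concentration at or near clinical Cmax (else 10 microM), half-log dilutions; growth expressed as percent test/control.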

[1] = second compound 0.1 µM, first compound 0.0316 µM
[2] = second compound 0.1 µM, first compound 0.1 µM
[3] = second compound 0.1 µM, first compound 0.316 µM
[4] = second compound 0.1 µM, first compound 1 µM
[5] = second compound 0.1 µM, first compound 3.16 µM
[6] = second compound 0.1 µM, first compound 10 µM
[7] = second compound 0.316 µM, first compound 0.0316 µM
[8] = second compound 0.316 µM, first compound 0.1 µM
[9] = second compound 0.316 µM, first compound 0.316 µM
[10] = second compound 0.316 µM, first compound 1 µM
[11] = second compound 0.316 µM, first compound 3.16 µM
[12] = second compound 0.316 µM, first compound 10 µM
[13] = second compound 1 µM, first compound 0.0316 µM
[14] = second compound 1 µM, first compound 0.1 µM
[15] = second compound 1 µM, first compound 0.316 µM
[16] = second compound 1 µM, first compound 1 µM
[17] = second compound 1 µM, first compound 3.16 µM
[18] = second compound 1 µM, first compound 10 µM
[19] = second compound 3.16 µM, first compound 0.0316 µM
[20] = second compound 3.16 µM, first compound 0.1 µM
[21] = second compound 3.16 µM, first compound 0.316 µM
[22] = second compound 3.16 µM, first compound 1 µM
[23] = second compound 3.16 µM, first compound 3.16 µM
[24] = second compound 3.16 µM, first compound 10 µM
[25] = second compound 10 µM, first compound 0.0316 µM
[26] = second compound 10 µM, first compound 0.1 µM
[27] = second compound 10 µM, first compound 0.316 µM
[28] = second compound 10 µM, first compound 1 µM
[29] = second compound 10 µM, first compound 3.16 µM
[30] = second compound 10 µM, first compound 10 µM
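Also: spheroids exposed to agents for seven days before reading.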

pIC50 (second compound 0.1 µM): < 6.52
pIC50 (second compound 0.316 µM): < 6.52
pIC50 (second compound 1 µM): < 6.52
pIC50 (second compound 3.16 µM): < 6.52
pIC50 (second compound 10 µM): < 6.52
Structure (SMILES): Nc1ncn(C2CC(O)C(CO)S2)c(=O)n1 (stereo not given) + CC(CO)NC(=O)c1cc(-c2ccc(Cl)cc2)nn(-c2cnn(C)c2)c1=O
viability, T/C (second compound 0.1 µM, first compound 0.000949 µM): 106%
viability, T/C (second compound 0.1 µM, first compound 0.003 µM): 109%
viability, T/C (second compound 0.1 µM, first compound 0.00949 µM): 92.5%
viability, T/C (second compound 0.1 µM, first compound 0.03 µM): 109%
viability, T/C (second compound 0.1 µM, first compound 0.0949 µM): 104%
viability, T/C (second compound 0.1 µM, first compound 0.3 µM): 86.3%
viability, T/C (second compound 0.316 µM, first compound 0.000949 µM): 99.5%
viability, T/C (second compound 0.316 µM, first compound 0.003 µM): 95.5%
viability, T/C (second compound 0.316 µM, first compound 0.00949 µM): 105%
viability, T/C (second compound 0.316 µM, first compound 0.03 µM): 97%
viability, T/C (second compound 0.316 µM, first compound 0.0949 µM): 104%
viability, T/C (second compound 0.316 µM, first compound 0.3 µM): 95%
viability, T/C (second compound 1 µM, first compound 0.000949 µM): 98.2%
viability, T/C (second compound 1 µM, first compound 0.003 µM): 105%
viability, T/C (second compound 1 µM, first compound 0.00949 µM): 113%
viability, T/C (second compound 1 µM, first compound 0.03 µM): 100%
viability, T/C (second compound 1 µM, first compound 0.0949 µM): 106%
viability, T/C (second compound 1 µM, first compound 0.3 µM): 96.9%
viability, T/C (second compound 3.16 µM, first compound 0.000949 µM): 103%
viability, T/C (second compound 3.16 µM, first compound 0.003 µM): 100%
viability, T/C (second compound 3.16 µM, first compound 0.00949 µM): 103%
viability, T/C (second compound 3.16 µM, first compound 0.03 µM): 112%
viability, T/C (second compound 3.16 µM, first compound 0.0949 µM): 89.5%
viability, T/C (second compound 3.16 µM, first compound 0.3 µM): 90.5%
viability, T/C (second compound 10 µM, first compound 0.000949 µM): 86.8%
viability, T/C (second compound 10 µM, first compound 0.003 µM): 84.1%
viability, T/C (second compound 10 µM, first compound 0.00949 µM): 101%
viability, T/C (second compound 10 µM, first compound 0.03 µM): 100%
viability, T/C (second compound 10 µM, first compound 0.0949 µM): 102%
viability, T/C (second compound 10 µM, first compound 0.3 µM): 87.6%

pIC50 (second compound 0.1 µM): < 5.00
pIC50 (second compound 0.316 µM): < 5.00
pIC50 (second compound 1 µM): < 5.00
pIC50 (second compound 3.16 µM): < 5.00
pIC50 (second compound 10 µM): > 7.50
Structure (SMILES): CC1(C)CCC(CN2CCN(c3ccc(C(=O)NS(=O)(=O)c4ccc(NCC5CCOCC5)c([N+](=O)[O-])c4)c(Oc4cnc5[nH]ccc5c4)c3)CC2)=C(c2ccc(Cl)cc2)C1 + Cc1cncc(-c2nc(NCCc3c[nH]c4ccccc34)c3ncn(C(C)C)c3n2)c1
viability, T/C [1]: 103%
viability, T/C [2]: 97.9%
viability, T/C [3]: 92.6%
viability, T/C [4]: 104%
viability, T/C [5]: 100%
viability, T/C [6]: 109%
viability, T/C [7]: 82%
viability, T/C [8]: 95%
viability, T/C [9]: 88.2%
viability, T/C [10]: 95.7%
viability, T/C [11]: 96.8%
viability, T/C [12]: 96.3%
viability, T/C [13]: 94.6%
viability, T/C [14]: 84.2%
viability, T/C [15]: 85.8%
viability, T/C [16]: 82%
viability, T/C [17]: 85.2%
viability, T/C [18]: 89.3%
viability, T/C [19]: 71.6%
viability, T/C [20]: 68.5%
viability, T/C [21]: 76.5%
viability, T/C [22]: 63.5%
viability, T/C [23]: 70.3%
viability, T/C [24]: 81.7%
viability, T/C [25]: 12%
viability, T/C [26]: 9.79%
viability, T/C [27]: 7.48%
viability, T/C [28]: 23.7%
viability, T/C [29]: 8.38%
viability, T/C [30]: 15.6%

pIC50 (second compound 0.1 µM): < 5.00
pIC50 (second compound 0.316 µM): < 5.00
pIC50 (second compound 1 µM): < 5.00
pIC50 (second compound 3.16 µM): < 5.00
pIC50 (second compound 10 µM): < 5.00
Structure (SMILES): CC(C)c1c(-c2ccccc2)nc2c(C#N)c[nH]n2c1=O + Cc1ccccc1N=Nc1ccc(NC(=O)c2ccnn2C)c(C)c1
viability, T/C [1]: 110%
viability, T/C [2]: 98.9%
viability, T/C [3]: 101%
viability, T/C [4]: 112%
viability, T/C [5]: 95.2%
viability, T/C [6]: 105%
viability, T/C [7]: 100%
viability, T/C [8]: 108%
viability, T/C [9]: 92.3%
viability, T/C [10]: 104%
viability, T/C [11]: 118%
viability, T/C [12]: 107%
viability, T/C [13]: 110%
viability, T/C [14]: 110%
viability, T/C [15]: 98.7%
viability, T/C [16]: 102%
viability, T/C [17]: 106%
viability, T/C [18]: 106%
viability, T/C [19]: 102%
viability, T/C [20]: 99.5%
viability, T/C [21]: 103%
viability, T/C [22]: 110%
viability, T/C [23]: 108%
viability, T/C [24]: 105%
viability, T/C [25]: 103%
viability, T/C [26]: 102%
viability, T/C [27]: 107%
viability, T/C [28]: 101%
viability, T/C [29]: 89%
viability, T/C [30]: 85.3%
